Patent publication US20250127695A1, “Use of Branched Medium-Chain Glycerol Ethers as Active Antidandruff Ingredients” (Henkel AG & Co. KGaA, priority 2022, published 2025)

How the values were obtained:
[1] = tested on: barrier markers (transglutaminase1, filaggrin, decorin, involucrin, and loricrin); assay: gene expression of barrier markers in in vitro tests on artificial skin models; assay type: cell-based; details: various concentrations, FIG. 2
Excerpt: The gene expression of all investigated barrier markers (transglutaminase1, filaggrin, decorin, involucrin, and loricrin) was reduced by the treatment.

Malassezia furfur = assay: quantitative suspension test of Malassezia furfur; assay type: cell-based; details: incubation ≤60 min at 37° C. in a buffer solution, FIG. 1
Experimental: The efficacy against dandruff was investigated by is of a suspension test. Various formulations were incubated for a certain time (≤60 min) together with the yeast Malassezia furfur, which was present in cell counts of 10^5-10^6 CFU/mL, at 37° C. in a buffer solution.
After incubation, the cell count of the yeast was determined by is of a culture method (growth on Sabouraud Agar). The difference between this value and the respective initial value is a measure of the microbicidal efficacy of the respective anti-dandruff compound.
One of the causes of dandruff formation is the excessive growth of various microorganisms on the scalp. Yeasts of the genus Malassezia play a particularly important role here. The growth-inhibiting effect of various anti-dandruff compounds in this experiment therefore indicates anti-dandruff efficacy (FIG. 1).

| SMILES | release of interleukin 8 (inflammatory marker) (interleukin 8) | gene expression of barrier markers (transglutaminase1, filaggrin, decorin, involucrin, loricrin) [1] | microbicidal efficacy against Malassezia (cell count of the yeast after incubation vs initial value) (Malassezia furfur) |
| --- | --- | --- | --- |
| Cc1cc(CC(C)CC(C)(C)C)n(O)c(=O)c1.NCCO (stereo not shown) [Octopirox, Piroctone Olamine] | does not negatively influence the release of inflammatory markers | reduced | – |
| CCCCCCC(C)OCC(O)CO (stereo not shown) [methylheptyl glycerin] | – | did not lead to a significant decrease in gene expression | killing effect on the Malassezia fungus |
